Reference: patent US20240285672A1, “BETA-GLUCAN FOR PREVENTING AND/OR TREATING FIBROSIS AND RELATED DISEASES” (GN Corporation Co Ltd, priority 2021, published 2024)

Experiments:
Assay type in all cases: in vivo, C57BL/6J mice
[1] = Plasma ALT in STAM mice (F18S study); settings: at 9 weeks of age
Experimental: At study termination, non-fasting blood was collected through direct cardiac puncture using pre-cooled syringes. The collected blood was transferred in pre-cooled polypropylene tubes with anticoagulant (Novo-Heparin) and stored on ice until centrifugation. The blood samples were centrifuged at 1,000×g for 15 minutes at 4° C. The supernatant was collected and stored at −80° C. for biochemistry and evaluation.
Plasma ALT levels were measured by FUJI DRI-CHEM 7000 (Fujifilm Corporation).

[2] = tested on: STAM mouse model of non-alcoholic steatohepatitis; experiment: Sirius red staining of liver sections, fibrosis area (F18S study); settings: STAM mice liver, x200
Experimental: To visualize collagen deposition, Bouin's fixed liver sections were stained using picro-Sirius red solution (Waldeck, Germany). Briefly, sections were deparaffinized and hydrophilized with xylene, 100-70% alcohol series and RO water, and then treated with 0.03% picro-Sirius red solution (Cat No.: 1A-280) for 60 minutes. After washing with 0.5% acetic acid solution and RO water, stained sections were dehydrated and cleared with 70-100% alcohol series and xylene, then sealed with Entellan® new (Merck, Germany) and used for observation.
For quantitative analysis of the fibrosis area and inflammation area, bright field images of Sirius red-stained and F4/80-immunostained sections were captured around the central vein using a digital camera (DFC295; Leica, Germany) at 200-fold magnification, and the positive areas in 5 fields/section were measured using ImageJ software (National Institute of Health, USA).

[3] = tested on: STAM mouse model of non-alcoholic steatohepatitis; experiment: HE staining, NAFLD Activity Score (F18S study); settings: STAM mice liver
Experimental: For HE staining, sections were cut from paraffin blocks of liver tissue prefixed in Bouin's solution and stained with Lillie-Mayer's Hematoxylin (Muto Pure Chemicals Co., Ltd., Japan) and eosin solution (Wako Pure Chemical Industries). The NAFLD Activity Score (NAS) was calculated according to the criteria of Kleiner (Kleiner D E. Et al., Hepatology, 2005; 41:1313), as shown in Table 2. For NAS scoring, bright field images of HE-stained sections were captured using a digital camera (DFC295; Leica, Germany) at 50- and 200-fold magnifications. Steatosis score in 1 section/mouse (representative 1 field at 50-fold magnification), inflammation score in 1 section/mouse (representative 1 field around the central vein at 200-fold magnification) and ballooning score in 1 section/mouse (representative 1 field around the central vein at 200-fold magnification) were estimated.

gut microbiota = experiment: Gut microbiome analysis of fecal samples, 16S rRNA sequencing (STAM mice)
From the text: Frequency: Fecal samples were collected at the 6 weeks of age (before administration) and 9 weeks of age (before sacrifice).
Procedure: At 6 weeks of age, fecal samples were collected from each mouse by clean catch method. Handle animals with clean gloves sterilized with 70% ethanol. A sterile petri dish was placed on the bench. Gently massage the abdomen, position the bottom of mouse over a fresh petri dish, and collect 1-2 fecal pellets. At sacrifice, fecal samples were aseptically collected from cecum. The tubes with feces were placed on ice immediately. These tubes were snap frozen in liquid nitrogen and stored at −80° C. for shipping.
In this analysis, the 16S rRNA sequence data acquired by the next-generation sequencer from the fecal […] was used to perform community analysis using the QIIME2 program for microbial community analysis. The raw read data in FASTQ format output from the next-generation sequencer was trimmed to remove adapter sequences and low QV regions that may be included in the data. Cutadapt was used to remove adapter sequences from DNA sequencing reads. Trimmomatic was used as read trimming tool for Illumina NGS data. The adapter sequence was trimmed using the adapter trimming program “cutadapt” if the Trimming of the region at the end of the read sequence overlapped the corresponding sequence by at least one base (mismatch tolerance: 20%). […]

CCCc1nc2c(C)cc(-c3nc4ccccc4n3C)cc2n1Cc1ccc(-c2ccccc2C(=O)O)cc1 [Telmisartan]
Plasma ALT levels (Mean) [1]: 36 U/L
Sirius red average positive stained area [2]: 0.59
NAS average score ([3]; HE staining): 2.625
NAS compared with the other groups ([3]; HE staining): significantly lesser score
Ballooning and steatosis score ([3]; compared with the vehicle): decreased most
decrease in firmicutes and increase in Bacteroides (gut microbiota; post-intervention, compared to all other groups): highest
Proteobacteria (gut microbiota; pre vs post-intervention): increased
